We go through 28 compounds from patent US20250346602A1, “LACTAM SUBSTITUTED IMIDAZOPYRIDAZINE IL-17A MODULATORS AND USES THEREOF” (DICE ALPHA, INC., priority 2022, published 2025).

Where only a bound is given, the exact number is not on record here.

The assay deals with T1, IL-17A/A (Homo sapiens, UniProt Q16552).
T1 construct: purchased Genscript Z03228
T1 sequence (Q16552 24-155): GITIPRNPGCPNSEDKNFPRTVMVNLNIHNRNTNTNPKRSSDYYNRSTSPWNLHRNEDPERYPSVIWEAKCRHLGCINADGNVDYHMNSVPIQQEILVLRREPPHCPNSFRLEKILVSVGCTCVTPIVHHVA
Kind of assay: IL-17A/A HEK-Blue cell assay. It is filed as cell-based. The settings on record: HEK-Blue IL-17A reporter cell line (HEK 293), IL-17A/A stimulation, 20 hours incubation, SEAP read at A630. Here is the method:
The HEK-Blue IL-17A reporter cell line (Fisher #NC1408637) was used for cell-based IL-17A/A inhibition assays. Cells were grown and prepared for assays according to the manufacturer's instructions. This cell line consists of HEK 293 cells that were designed to expressed IL-17RA, IL-17RC, and the ActI adapter molecule, the combination of which, when stimulated by IL-17A/A activates a NFκB promoter and drives expression of a recombinant Secreted Alkaline Phosphatase (SEAP) gene protein. Media from the cells is then added to a development reagent (Quanti-Blue Substrate, Fisher #NC9711613), and read at A630.
Compounds were titrated in DMSO, with a top final compound concentration of 10 uM, 1 uM, or 0.3 uM, and added to the cells immediately before adding IL-17A/A (Genscript #Z03228). The cells, compound, and IL-17A/A were then incubated for 20 hours before media was removed for SEAP analysis. The resulting inhibition curve was then analyzed using Graphpad Prism 7.0, and IC50 values were determined using a 4-parameter nonlinear fit. DMSO was added to a universal final concentration of 0.1% to optimize background.
For orientation: IC50 means the concentration needed to halve the response being measured. Consider `CC1(c2nocc2C(=O)N[C@H](c2cn3nc(CC4C[C@@H](C(F)(F)F)CNC4=O)ccc3n2)C2CCC(F)(F)CC2)CC1` (stereo partly drawn) [Compound 123, N-((1S)-(4,4-difluorocyclohexyl)(6-(((5R)-2-oxo-5-(trifluoromethyl)piperidin-3-yl)methyl)imidazo[1,2-b]pyridazin-2-yl)methyl)-3-(1-methylcyclopropyl)isoxazole-4-carboxamide], for which the IC50 lay in the range of 0.1 to 1 µM.

As to `CCn1nccc1C(=O)N[C@H](c1cn2nc(CC3C[C@@H](C(F)(F)F)CNC3=O)ccc2n1)C1CC2(C1)CC(F)(F)C2` (single isomer, unassigned) [Compound 173], the IC50 is 0.1 to 1 µM.

On to `CCn1nccc1C(=O)NC(c1cn2nc(CC3C[C@@H](C(F)(F)F)CNC3=O)ccc2n1)C1CCC2CC2CC1` (single isomer, unassigned) [Compound 176], for which the IC50 is less than 0.1 µM.

Turning to `CC[C@@H](c1ccc(F)cc1)[C@H](NC(=O)c1ccnn1CC)c1cn2nc(C[C@H]3C[C@@H](C(F)(F)F)NC3=O)ccc2n1` [Compound 22, 1-ethyl-N-((1S,2S)-2-(4-fluorophenyl)-1-(6-(((3R,5S)-2-oxo-5-(trifluoromethyl)pyrrolidin-3-yl)methyl)imidazo[1,2-b]pyridazin-2-yl)butyl)-1H-pyrazole-5-carboxamide], the IC50 is 0.1 to 1 µM.

Turning to `CCn1nccc1C(=O)NC(c1cn2nc(CC3CC(C)CNC3=O)ccc2n1)C1CCC(C)CC1` (single isomer, unassigned) [Compound 49], the IC50 was 0.1 to 1 µM.

`CC(C)n1nccc1C(=O)N[C@H](c1cn2nc(CC3C[C@@H](C(F)(F)F)CNC3=O)ccc2n1)C1CCC(F)(F)CC1` (stereo partly drawn) [Compound 111, N-((1S)-(4,4-difluorocyclohexyl)(6-(((5R)-2-oxo-5-(trifluoromethyl)piperidin-3-yl)methyl)imidazo[1,2-b]pyridazin-2-yl)methyl)-1-isopropyl-1H-pyrazole-5-carboxamide]: the IC50 is less than 0.1 µM.

Take `O=C(N[C@H](c1cn2nc(CC3C[C@@H](C(F)(F)F)CNC3=O)ccc2n1)C1CCC(F)(F)CC1)c1nonc1CC(F)(F)F` (stereo partly drawn) [Compound 116, N-((1S)-(4,4-difluorocyclohexyl)(6-(((5R)-2-oxo-5-(trifluoromethyl)piperidin-3-yl)methyl)imidazo[1,2-b]pyridazin-2-yl)methyl)-4-(2,2,2-trifluoroethyl)-1,2,5-oxadiazole-3-carboxamide]: the IC50 is 0.1 to 1 µM.

As for `CCn1nccc1C(=O)N[C@H](c1cn2nc(CC3CCNC3=O)ccc2n1)C1CCCCCC1` (single isomer, unassigned) [Compound 4], the IC50 lay in the range of 0.1 to 1 µM.

Take `CCn1nccc1C(=O)N[C@H](c1cn2ncc(CC3C[C@@H](C(F)(F)F)NC3=O)cc2n1)C1CCC(F)(F)CC1` (single isomer, unassigned) [Compound 204]: the IC50 was less than 0.1 µM.

As to `CCn1nccc1C(=O)N[C@H](c1cn2nc(CC3CC(C(F)F)CNC3=O)ccc2n1)C(C1CC1)C1CC1` (mixture of isomers) [Compound 41, N-((1S)-2,2-dicyclopropyl-1-(6-((5-(difluoromethyl)-2-oxopiperidin-3-yl)methyl)imidazo[1,2-b]pyridazin-2-yl)ethyl)-1-ethyl-1H-pyrazole-5-carboxamide], the IC50 is more than 1 µM.

As to `CCn1nccc1C(=O)N[C@H](c1cn2nc(CC3C[C@@H](C(F)(F)F)CNC3=O)ccc2n1)C1CC2(CC2)C1` (stereo partly drawn) [Compound 192, 1-ethyl-N—((1S)-(6-(((5R)-2-oxo-5-(trifluoromethyl)piperidin-3-yl)methyl)imidazo[1,2-b]pyridazin-2-yl)(spiro[2.3]hexan-5-yl)methyl)-1H-pyrazole-5-carboxamide], the IC50 was more than 1 µM.

As to `CCn1nccc1C(=O)N[C@H](c1cn2nc(CC3CCNC3=O)ccc2n1)C1CCC(F)(F)CC1` (single isomer, unassigned) [Compound 1], the half-maximal inhibitory concentration (IC50) is more than 1 µM.

Regarding `O=C(N[C@H](c1cn2nc(CC3C[C@@H](C(F)(F)F)CNC3=O)ccc2n1)C1CCC(F)(F)CC1)c1conc1C(F)(F)C1CC1` (stereo partly drawn) [Compound 125, 3-(cyclopropyldifluoromethyl)-N-((1S)-(4,4-difluorocyclohexyl)(6-(((5R)-2-oxo-5-(trifluoromethyl)piperidin-3-yl)methyl)imidazo[1,2-b]pyridazin-2-yl)methyl)isoxazole-4-carboxamide], the concentration for half-maximal inhibition (IC50) lay within 0.1 to 1 µM.

`O=C(N[C@H](c1cn2ncc(CC3C[C@@H](C(F)(F)F)NC3=O)cc2n1)C1CCC(F)(F)CC1)c1conc1C(F)(F)F` (single isomer, unassigned) [Compound 215]: the IC50 is less than 0.1 µM.

On to `CCn1nccc1C(=O)N[C@H](c1cn2nc(CC3CC(C)(F)CNC3=O)ccc2n1)C(C1CC1)C1CC1` (mixture of isomers) [Compound 40, N-((1S)-2,2-dicyclopropyl-1-(6-((5-fluoro-5-methyl-2-oxopiperidin-3-yl)methyl)imidazo[1,2-b]pyridazin-2-yl)ethyl)-1-ethyl-1H-pyrazole-5-carboxamide], for which the IC50 was more than 1 µM.

Take `CCn1nccc1C(=O)N[C@H](c1cn2nc(CC3C[C@@H](C(F)(F)F)CNC3=O)ccc2n1)[C@@H]1C[C@H]2C[C@H]2C1` (stereo partly drawn) [Compound 170, N-((1S)-((1R,3S,5S)-bicyclo[3.1.0]hexan-3-yl)(6-(((5R)-2-oxo-5-(trifluoromethyl)piperidin-3-yl)methyl)imidazo[1,2-b]pyridazin-2-yl)methyl)-1-ethyl-1H-pyrazole-5-carboxamide]: the IC50 is more than 1 µM.

As for `CCn1nccc1C(=O)N[C@H](c1cn2nc(CC3C[C@@H](C(F)(F)F)CNC3=O)ccc2n1)C1CC2(CCC2)C1` (single isomer, unassigned) [Compound 190], the IC50 was more than 1 µM.

In the case of `CCn1nccc1C(=O)N[C@H](c1cn2ncc(CC3C[C@@H](C(F)(F)F)NC3=O)cc2n1)[C@H]1CC[C@H](C)CC1` (single isomer, unassigned) [Compound 212], the IC50 is less than 0.1 µM.

Take `O=C(N[C@H](c1cn2nc(CC3C[C@@H](C(F)(F)F)CNC3=O)ccc2n1)[C@H]1CCCC(F)(F)C1)c1nonc1C1CC1` (stereo partly drawn) [Compound 144, 4-cyclopropyl-N—((S)-((S)-3,3-difluorocyclohexyl)(6-(((5R)-2-oxo-5-(trifluoromethyl)piperidin-3-yl)methyl)imidazo[1,2-b]pyridazin-2-yl)methyl)-1,2,5-oxadiazole-3-carboxamide]: the IC50 was less than 0.1 µM.

Consider `CCn1nccc1C(=O)N[C@H](c1cn2nc(CC3C[C@@H](C(F)(F)F)CNC3=O)ccc2n1)C1CCC2(CC1)CC2` (single isomer, unassigned) [Compound 188], for which the IC50 was 0.1 to 1 µM.

For `Cc1conc1C(=O)N[C@H](c1cn2nc(CC3C[C@@H](C(F)(F)F)CNC3=O)ccc2n1)C1CCC(F)(F)CC1` (stereo partly drawn) [Compound 103, N-((1S)-(4,4-difluorocyclohexyl)(6-(((5R)-2-oxo-5-(trifluoromethyl)piperidin-3-yl)methyl)imidazo[1,2-b]pyridazin-2-yl)methyl)-4-methylisoxazole-3-carboxamide], the half-inhibitory concentration (IC50) lay within 0.1 to 1 µM.

Turning to `CCn1nccc1C(=O)N[C@H](c1cn2nc(CC3CC4(CC4)CNC3=O)ccc2n1)[C@H]1CC[C@H](C)CC1` (single isomer, unassigned) [Compound 64], the IC50 was in the range of 0.1 to 1 µM.

Take `O=C(N[C@H](c1cn2nc(CC3C[C@@H](C(F)(F)F)CNC3=O)ccc2n1)C1CCC(F)(F)CC1)c1conc1C1(F)CC1` (stereo partly drawn) [Compound 122, N-((1S)-(4,4-difluorocyclohexyl)(6-(((5R)-2-oxo-5-(trifluoromethyl)piperidin-3-yl)methyl)imidazo[1,2-b]pyridazin-2-yl)methyl)-3-(1-fluorocyclopropyl)isoxazole-4-carboxamide]: the IC50 was in the range of 0.1 to 1 µM.

As for `CCn1nccc1C(=O)N[C@H](c1cn2nc(CC3C[C@@H](C(F)(F)F)CNC3=O)ccc2n1)[C@H]1CC[C@H](C)CC1` (stereo partly drawn) [Compound 97, 1-ethyl-N-((1S)-((1R.4S)-4-methylcyclohexyl)(6-(((5R)-2-oxo-5-(trifluoromethyl)piperidin-3-yl)methyl)imidazo[1,2-b]pyridazin-2-yl)methyl)-1H-pyrazole-5-carboxamide], the IC50 fell in the range of 0.1 to 1 µM.

In the case of `CCn1nccc1C(=O)N[C@H](c1cn2nc(CC3CC(CC(F)(F)F)CNC3=O)ccc2n1)C1CCC(F)(F)CC1` (single isomer, unassigned) [Compound 65], the IC50 lay within 0.1 to 1 µM.

With `CCn1nccc1C(=O)N[C@H](c1cn2nc(CC3C(=O)NCCC3C)ccc2n1)[C@H]1CC[C@H](C)CC1` (single isomer, unassigned) [Compound 54], the IC50 was in the range of 0.1 to 1 µM.

As for `CCn1nccc1C(=O)N[C@H](c1cn2nc(CC3C[C@@H](C(F)(F)F)NC3=O)ccc2n1)C(C1CC1)C1CC1` (single isomer, unassigned) [Compound 15], the IC50 is more than 1 µM.

Take `CC(C)(F)c1nocc1C(=O)N[C@H](c1cn2nc(CC3C[C@@H](C(F)(F)F)CNC3=O)ccc2n1)C1CCC(F)(F)CC1` (stereo partly drawn) [Compound 121, N-((1S)-(4,4-difluorocyclohexyl)(6-(((5R)-2-oxo-5-(trifluoromethyl)piperidin-3-yl)methyl)imidazo[1,2-b]pyridazin-2-yl)methyl)-3-(2-fluoropropan-2-yl)isoxazole-4-carboxamide]: the IC50 was 0.1 to 1 µM.
